The results in this text go back to patent US20230357765A1, “USE OF LONG NON-CODING RNAS IN MEDULLOBLASTOMA” (THE JOHNS HOPKINS UNIVERSITY, priority 2020, published 2023).

In series [1] the test system is D425 Med and MED211 MB cells. As to the kind of experiment: Cell proliferation assay, living cells counted by trypan blue staining. It is filed as cell-based, human. The protocol: (§1) Cell Culture. Cell lines were authenticated using single tandem repeat profiling. D425 Med cells were cultured in DMEM/ F12 with 10% serum and 1% glutamate/penicillin/streptomycin. MED211 cells were cultured in medium composed of 30% Ham’s F12/70% DMEM, 1% antibiotic antimycotic, 20% B27 supplement, 5 µg/mL heparin, 20 ng/mL epidermal growth factor (EGF), and 20 ng/mL fibroblast growth factor 2. DAOY cells were cultured in DMEM with 10% serum and 1% glutamate/penicillin/streptomycin. All cells were grown in a humidified incubator at 37° C., 5% CO2. For blocking of bromodomain and extraterminal domain family (BET) bromodomain protein in D425 Med and MED211 cells, Jun Qi 1 (JQ1) (SML1524-5MG, Sigma Aldrich) was added, and the medium was changed every other day.
Cell Proliferation, Apoptosis, and 3D Colony Formation Assays. Cells were plated in 96-well plates at 5 × 10^3 cells per well in triplicate. After 72 hours of ASO or siRNA transfection, living cells were counted by trypan blue staining. Apoptotic cells were analyzed using a GloMax luminometer (Promega) with conditions optimized for the Caspase-Glo 3/7 Assay. […] Colony number was determined using the EVE cell counter (Nano Entek), and staining intensity was analyzed using ImageJ software.

For a further series, the system named is MYC. Kind of series: MYC expression in JQ1-treated cells, qRT-PCR. It is filed as cell-based, human. To be noted: D425 Med and MED211 cells; JQ1 100 or 300 nM; relative to DMSO. The protocol: as §1
(§2) Quantitative Real-Time PCR. Total RNA was purified using the Direct-zol RNA Miniprep kit (Zymo Research). To obtain RNA from xenografts, tumor tissues were pulverized and then used for purification. Quantitative PCR was carried out using SYBR Green mRNA assays as previously described.^8 Primer sequences are listed in Tables 8-9 and Supplementary Table 2 (available online).
(§3) JQ1 Regulates lnc-HLX-2-7via MYC. […] In addition, downregulation of lnc-HLX-2-7 by JQ1 was also confirmed in vivo (FIGS. 10).
On the technique in general: Quantitative PCR measures a nucleic acid by following its amplification.

The subject of series [2] is lnc-HLX-2-7. As to the kind of experiment: lnc-HLX-2-7 expression in JQ1-treated cells, qRT-PCR. It is filed as cell-based, human. To be noted: D425 Med and MED211 cells; JQ1 100 or 300 nM; relative to DMSO. The procedure: as §1, §2, §3
Series [3] deals with D425 Med and MED211 intracranial xenografts. Kind of series: Intracranial MB xenografts treated with JQ1, bioluminescence imaging and qPCR of tumors. It is filed as in vivo, NOD-SCID mice. To be noted: JQ1 50 mg/kg intraperitoneal on alternating days for 14 days; versus DMSO. The procedure:
FIGS. 10A-10C. JQ1 regulates lnc-HLX-2-7 via MYC in vivo. (FIG. 10A) D425 Med and MED211 cells expressing luciferase were implanted into the […] of NOD-SCID mice. Seven days after injection, mice were administered DMSO or JQ1. Tumor formation was assessed by bioluminescence imaging. Changes in bioluminescent signal were examined weekly after tumor implantation. (FIG. 10B) Quantification of total photon counts from mice treated with JQ1 or DMSO. n=4, *p<0.05, Student’s t-test. (FIG. 10C) Expression levels of MYC and lnc-HLX-2-7 were examined by qPCR in DMSO or JQ1-treated mouse xenografts. Relative expression levels compared to those in the DMSO-treated tumor are indicated on the y-axis (n=4). Error bars indicate s.e.m. n=4, *p<0.01, Student’s t-test.
Medulloblastoma Xenografts (Intracranial). All mouse studies were approved and performed in accordance with the policies and regulations of the Animal Care and Use Committee of Johns Hopkins University. Intracranial MB xenografts were established by injecting D425 Med cells, MED211 cells, D425 Med cells with lnc- HLX-2-7 deleted, and MED211 cells with lnc-HLX-2-7 deleted into the cerebellums of NOD-SCID mice (Jackson Laboratory). […] Tumor growth was evaluated by weekly bioluminescence imaging using an in vivo spectral imaging system (IVIS Lumina II, Xenogen).

Series [4] deals with lnc-HLX-2-7. Kind of series: ASO knockdown of lnc-HLX-2-7, expression by qRT-PCR. It is filed as cell-based, human. To be noted: D425 Med and MED211 cells; 50 nM ASO, Lipofectamine 3000; compared with ASO-Luc; P < 0.01. The protocol:
FIGS. 48A-48C. Confirmation of ASO design and knockdown effect of lnc-HLX-2-7. (FIG. 48A) Diagram showing the sites targeted by each ASO. (FIGS. 48B-48C) Expression level of lnc-HLX-2-7in D425 Med (FIG. 48B) and MED211 (FIG. 48C) cells treated with ASO against the indicated genes on the x-axis. ASOs were transfected at 50 nM for 72 h using Lipofectamine 3000 (Thermo Fisher Scientific, Waltham MA). The efficiency was determined by qRT-PCR. Relative expression level to luciferase (Luc) gene is indicated on the y-axis. *p<0.01, Kruskal-Wallis analysis.
as §2
Antisense Oligonucleotides. Lnc-HLX-2-7 Antisense oligonucleotides (ASOs) were designed using the Integrated DNA Technologies (IDT) Antisense Design Tool (IDT). ASO knockdowns were performed with 50 nM (final concentration) locked nucleic acid (LNA) GapmeRs transfected with Lipofectamine 3000 (Thermo Fisher Scientific). All ASOs were modified with phosphorothioate (PS) linkages. […]

Series [5] concerns D425 Med and MED211 MB cells. As to the kind of experiment: Apoptosis assay (Caspase-Glo 3/7). It is filed as cell-based, human. To be noted: 72 hours after ASO transfection, P < 0.01. The procedure: Cell Proliferation, Apoptosis, and 3D Colony Formation Assays. Cells were plated in 96-well plates at 5 × 10^3 cells per well in triplicate. After 72 hours of ASO or siRNA transfection, living cells were counted by trypan blue staining. Apoptotic cells were analyzed using a GloMax luminometer (Promega) with conditions optimized for the Caspase-Glo 3/7 Assay. For the 3D colony formation assay, cells were seeded in 24-well plates at a density of 1 × 10^2 cells/well and were stained with crystal violet solution approximately 14 days later. Colony number was determined using the EVE cell counter (Nano Entek), and staining intensity was analyzed using ImageJ software.

Another series deals with HLX. As to the kind of experiment: HLX expression after ASO treatment, qRT-PCR. It is filed as cell-based, human. To be noted: D425 Med and MED211 cells treated with ASO.
From the text: FIG. 8. lnc-HLX-2-7regulates the expression of HLX coding gene. Expression levels of HLX in D425 Med and MED211 cells treated with ASO against the indicated genes in the x-axis. Relative expression level to mock is indicated in the y-axis. *p<0.01, Kruskal-Wallis analysis.
as §2
Antisense Oligonucleotides. Lnc-HLX-2-7 Antisense oligonucleotides (ASOs) were designed using the Integrated DNA Technologies (IDT) Antisense Design Tool (IDT). ASO knockdowns were performed with 50 nM (final concentration) locked nucleic acid (LNA) GapmeRs transfected with Lipofectamine 3000 (Thermo Fisher Scientific). All ASOs were modified with phosphorothioate (PS) linkages.

l = locked nucleic acid (LNA); d = 2'-deoxy (DNA)

`Cc1sc2c(c1C)C(c1ccc(Cl)cc1)=N[C@@H](CC(=O)OC(C)(C)C)c1nnc(C)n1-2` [JQ1, Jun Qi 1 (JQ1)]: the “cell growth (viable cell numbers) with JQ1” value in series [1] (effect suppressed by overexpression of lnc-HLX-2-7 (pcDNA4-lnc-HLX-2-7)) is given as “cell growth inhibition”. In addition, in the series with MYC, the MYC expression entry is recorded as “downregulated”. The lnc-HLX-2-7 expression entry in the series with lnc-HLX-2-7 [2] is recorded as “downregulated”. Further, the “lnc-HLX-2-7 expression in xenograft tumors” value in series [3] is “downregulation”.

As for “+T^∗+G^∗+A^∗G^∗A^∗G^∗A^∗T^∗T^∗A^∗A^∗T^∗C^∗T^∗A^∗G^∗A^∗T^∗+T^∗+G^∗+C (TGAGAGATTAATCTAGATTGC; sugars from the 5' end l3 d15 l3, all phosphorothioate, methylation of C not given here) [ASO-lnc-HLX-2-7]”, the lnc-HLX-2-7 expression result in the series with lnc-HLX-2-7 [4] is listed as “significantly decreased”. Further, the “MB cell growth (viable cell numbers)” value in series [1] (72 hours after ASO transfection, P < 0.01) is “significantly suppressed”. Also, in series [5], the “apoptosis (apoptotic cell numbers)” value is “induced apoptosis”. Moreover, in the series with HLX, the HLX expression entry is listed as “significantly reduced”.
